Here are results for three compounds from ChEMBL document CHEMBL1137656, “Effects of serum on in vitro susceptibility testing of echinocandins” (Antimicrob Agents Chemother, 2007).

Numbered stars: 1 amine (or outer) side, 2 acyl side, 3 side chain; on linkers, the order of the positions; unused ones are H or OH. Bridge positions count the residues as written; N and C are the ends. Square brackets hold non-standard residues; d marks the D form. Peptide text beside a SMILES is read from it. * marks the point of attachment. hTyr(3S-OH,4S-OH,3'-OSO3H) = N[C@H](C(=O)O)[C@H](O)[C@@H](O)c1ccc(O)c(OS(=O)(=O)O)c1; pTerphenylCO(4''-OnC5H11) = CCCCCOc1ccc(-c2ccc(-c3ccc(C(=O)*)cc3)cc2)cc1; Orn(4R-OH,5R-OH) = O=C([C@H](C[C@@H](O)[C@@H](O)N[*:3])N[*:1])[*:2]; hTyr(3S-OH,4S-OH) = N[C@H](C(=O)O)[C@H](O)[C@@H](O)c1ccc(O)cc1; Pro(3S-OH,4S-Me) = C[C@H]1CN[C@H](C(=O)O)[C@H]1O; X1 = CCCCCOc1ccc(-c2cc(-c3ccc(C(=O)*)cc3)no2)cc1; Gln(3R-OH) = NC(=O)C[C@@H](O)[C@H](N)C(=O)O; Hyp = O=C(O)[C@@H]1C[C@@H](O)CN1

The subject of data set [1] is Aspergillus flavus. Description: Ratio of MIC50 for Aspergillus flavus isolate 0001-061 in presence of 50% human serum to MIC50 for Aspergillus flavus isolate 0001-061 in presence of RPMI 1640 medium. In kind it is functional.
In data set [2] the test system is Aspergillus flavus. Description: Antifungal activity against Aspergillus flavus isolate 0001-061 after 24 hrs by CLSI M38-A broth microdilution method in presence of RPMI 1640 medium. In kind it is functional. Conditions: isolate 0001-061, 24 h. (Broth dilution looks for growth in wells or tubes with falling amounts of substance.)
In the next data set the test system is Clavispora lusitaniae. Briefly: Antifungal activity against Candida lusitaniae isolate 0015-049 after 24 hrs by CLSI M27-A2 broth microdilution method in presence of RPMI 1640 medium. In kind it is functional. The note with it: isolate 0015-049, 24 h.
The subject of the next data set is Candida parapsilosis. Briefly: Ratio of MIC50 for Candida parapsilosis ATCC 22019 in presence of 50% human serum to MIC50 for Candida parapsilosis ATCC 22019 in presence of RPMI 1640 medium. In kind it is functional.
For another data set, the system named is Pichia kudriavzevii. Briefly: Antifungal activity against Candida krusei isolate 0013-054 after 24 hrs by CLSI M27-A2 broth microdilution method in presence of RPMI 1640 medium. In kind it is functional. Conditions: isolate 0013-054, 24 h.
In the next data set the test system is Candida tropicalis. Briefly: Ratio of MIC50 for Candida tropicalis isolate 0022-021 in presence of 50% human serum to MIC50 for Candida tropicalis isolate 0022-021 in presence of RPMI 1640 medium. In kind it is functional.
The next data set deals with Nakaseomyces glabratus. Description: Ratio of MIC50 for Candida glabrata isolate 0022-012 in presence of 50% human serum to MIC50 for Candida glabrata isolate 0022-012 in presence of RPMI 1640 medium. In kind it is functional.
Data set [3] in a line: Protein binding in mouse serum at 1 to 1000 ug/mL by scintillation counting. In kind it is ADME, cell-free. The note with it: read-out: PB (converted).
Data set [4] is described as follows: Protein binding in human serum at 1 to 1000 ug/mL by scintillation counting. In kind it is ADME, cell-free. Conditions: read-out: PB (converted).

On to `CCCCCOc1ccc(-c2cc(-c3ccc(C(=O)N[C@H]4C[C@@H](O)[C@@H](O)NC(=O)[C@@H]5[C@@H](O)[C@@H](C)CN5C(=O)[C@H]([C@H](O)CC(N)=O)NC(=O)[C@H]([C@H](O)[C@@H](O)c5ccc(O)c(OS(=O)(=O)O)c5)NC(=O)[C@@H]5C[C@@H](O)CN5C(=O)[C@H]([C@@H](C)O)NC4=O)cc3)no2)cc1` [MICAFUNGIN] (X1-[Orn(4R-OH,5R-OH)]T[Hyp][hTyr(3S-OH,4S-OH,3'-OSO3H)][Gln(3R-OH)][Pro(3S-OH,4S-Me)]; lactam 1-C), for which the Ratio was 1024 with Aspergillus flavus [1], 64 in the data set on Candida parapsilosis, 128 in the data set on Candida tropicalis and 64 in the data set on Nakaseomyces glabratus. Also, the figures for the MIC50 in the data set with Aspergillus flavus [2], in the data set on Clavispora lusitaniae and with Pichia kudriavzevii were 0.125 µg/mL, 0.0156 µg/mL and 0.125 µg/mL, respectively.

For the compound `CC[C@H](C)C[C@H](C)CCCCCCCCC(=O)N[C@H]1C[C@@H](O)[C@@H](NCCN)NC(=O)[C@@H]2[C@@H](O)CCN2C(=O)[C@H]([C@H](O)CCN)NC(=O)[C@H]([C@H](O)[C@@H](O)c2ccc(O)cc2)NC(=O)[C@@H]2C[C@@H](O)CN2C(=O)[C@H]([C@@H](C)O)NC1=O` [CASPOFUNGIN], the Ratio in the data set on Aspergillus flavus [1] came out at 1; with Candida parapsilosis, 16; in the data set on Candida tropicalis, 1; with Nakaseomyces glabratus it was 1. The fraction unbound in data set [3] and in data set [4] was 0.04 each time. Also, the MIC50 stood at 128 µg/mL with Aspergillus flavus [2], 0.5 µg/mL in the data set on Clavispora lusitaniae and 0.5 µg/mL with Pichia kudriavzevii.

As to `CCCCCOc1ccc(-c2ccc(-c3ccc(C(=O)N[C@H]4C[C@@H](O)[C@@H](O)NC(=O)[C@@H]5[C@@H](O)[C@@H](C)CN5C(=O)[C@H]([C@@H](C)O)NC(=O)[C@H]([C@H](O)[C@@H](O)c5ccc(O)cc5)NC(=O)[C@@H]5C[C@@H](O)CN5C(=O)[C@H]([C@@H](C)O)NC4=O)cc3)cc2)cc1` [ANIDULAFUNGIN] ({pTerphenylCO(4''-OnC5H11)}-[Orn(4R-OH,5R-OH)]T[Hyp][hTyr(3S-OH,4S-OH)]T[Pro(3S-OH,4S-Me)]; lactam 1-C), the Ratio stood at 32 in the data set on Aspergillus flavus [1], 128 with Candida parapsilosis, 128 in the data set with Candida tropicalis and 32 in the data set on Nakaseomyces glabratus. Moreover, the results for the MIC50 in the data set with Aspergillus flavus [2], with Clavispora lusitaniae and in the data set with Pichia kudriavzevii were 4 µg/mL, 0.125 µg/mL and 0.125 µg/mL, respectively.

By MIC50 is commonly meant the lowest concentration that inhibits either 50% of growth or 50% of the strains tested, depending on the study.
